# Assay results reported in ChEMBL document CHEMBL5727121, “Substituted [1,2,4]triazolo[4,3-a]pyrazines as BRD4 inhibitors” (2019).
# Target: Bromodomain-containing protein 4 (Homo sapiens, UniProt O60885)
# Assay: A mix consisting of 15 nM GST-BRD4-BD1 protein (aa 44-168) or 150 nM GST-BRD4-BD2 (aa 333-460) and 15 nM biotinylated Acetyl-Histone H4 (Lys5, 8, 12, 16) peptide is prepared in assay buffer (50 mM HEPES pH=7.4; 25 mM NaCl; 0.05% Tween 20; 0.1% bovine serum albumin (BSA); 10 mM dithiothreitol (DTT)). 6 μl of the mix is added to the compound dilutions. Subsequently, 6 μl of premixed AlphaLISA Glutathione Acceptor Beads and AlphaScreen Streptavidin Donor Beads from PerkinElmer (in assay buffer at a concentration of 10 μg/ml each) are added and the samples are incubated for 30 min at RT in the dark (shaking 300 rpm). Afterwards, the signal is measured in a PerkinElmer Envision HTS Multilabel Reader using the AlphaScreen protocol from PerkinElmer.Each plate contains negative controls where biotinylated Acetyl-Histone H4 peptide and GST-BRD4-BD1 or GST-BRD4-BD2 are left out and replaced by assay buffer. Negative control values are entered as low basis value when using the software GraphPad Prism for calculations. Furthermore, a positive control (probe molecule JQ1+ with protein/peptide mix) is pipetted. Determination of IC50 values are carried out using GraphPad Prism 3.03 software (or updates thereof).
compound,measurement,value
CNc1nc(-c2nn(C)c(C)c2Oc2ccccc2)cn2c(C)nnc12,IC50,8 nM
